Data as given in US7488740B2, “Substituted quinolin-4-ylamine analogues” (Neurogen Corporation, priority 2003, dated 2009).

Biological target: T1, human capsaicin receptor (Homo sapiens, UniProt Q8NER1)
T1 construct: A cDNA encoding full length human capsaicin receptor recited in U.S. Pat. No. 6,482,611 was subcloned in the plasmid pBK-CMV; expressed in transfected cells
Assay: Calcium mobilization assay (Example 6)
Assay type: cell-based
Settings: concentration required to provide a 50% decrease in the fluorescence response of cells exposed to one IC50 of capsaicin
Protocol: Human embryonic kidney (HEK293) cells were transfected with the pBK-CMV expression construct encoding the full length human capsaicin receptor using standard methods. The transfected cells were selected for two weeks in media containing G418 (400 μg/ml) to obtain a pool of stably transfected cells. Independent clones were isolated from this pool by limiting dilution to obtain clonal stable cell lines for use in subsequent experiments.
Cells transfected with expression plasmids (as described in Example 4) and thereby expressing human capsaicin receptor are seeded and grown to 70-90% confluency in FALCON black-walled, clear-bottomed 96-well plates (#3904, BECTON-DICKINSON, Franklin Lakes, N.J.). The culture medium is emptied from the 96 well plates and FLUO-3 AM calcium sensitive dye (Molecular Probes, Eugene, Oreg.) is added to each well (dye solution: 1 mg FLUO-3 AM, 440 μL DMSO and 440 μl 20% pluronic acid in DMSO, diluted 1:250 in Krebs-Ringer HEPES (KRH) buffer (25 mM HEPES, 5 mM KCl, 0.96 mM NaH2PO4, 1 mM MgSO4, 2 mM CaCl2, 5 mM glucose, 1 mM probenecid, pH 7.4), 50 μl diluted solution per well). Plates are covered with aluminum foil and incubated at 37° C. for 1-2 hours in an environment containing 5% CO2. After the incubation, the dye is emptied from the plates, and the cells are washed once with KRH buffer, and, resuspended in KRH buffer.
Agonist (e.g., olvanil, capsaicin, or RTX)-induced calcium mobilization is monitored using either FLUOROSKAN ASCENT (Labsystems, Franklin, Mass.) or FLIPR (fluorometric imaging plate reader system, Molecular Devices, Sunnyvale, Calif.) instruments. Varying concentrations of the antagonists ruthenium red or capsazepine (RBI; Natick, Mass.) are added to cells concurrently with agonist (e.g., 25-50 nM capsaicin). For agonist-induced calcium responses, data obtained between 30 and 60 seconds after agonist application are used to generate the IC50 values. KALEIDAGRAPH software (Synergy Software, Reading, Pa.) is used to fit the data to the equation: y=a*(1/(1+(b/x)^c)) to determine the IC50 for the response. In this equation, y is the maximum fluorescence signal, x is the concentration of the agonist or antagonist, a is the Emax, b corresponds to the IC50 value and c is the Hill coefficient.
To measure the ability of a test compound to antagonize (inhibit) the response of cells expressing capsaicin receptors to capsaicin or other vanilloid agonist, the IC50 of capsaicin is first determined. An additional 20 μl of KRH buffer and 1 μl DMSO is added to each well of cells, prepared as described above. 100 μl capsaicin in KRH buffer is automatically transferred by the FLIPR instrument to each well. An 8-point concentration response curve, with final capsaicin concentrations of 1 nM to 3 μM, is used to determine capsaicin IC50.
Test compounds are dissolved in DMSO, diluted in 20 μl KRH buffer so that the final concentration of test compounds in the assay well is between 1 μM and 5 μM, and added to cells prepared as described above. The 96 well plates containing prepared cells and test compounds are incubated in the dark, at room temperature for 0.5 to 6 hours. It is important that the incubation not continue beyond 6 hours. Just prior to determining the fluorescence response, 100 μl capsaicin in KRH buffer at twice the IC50 concentration determined from the concentration response curve is automatically added by the FLIPR instrument to each well of the 96 well plate for a final sample volume of 200 μl and a final capsaicin concentration equal to the IC50. The final concentration of test compounds in the assay wells is between 1 μM and 5 μM. […] Antagonists of the capsaicin receptor decrease this response by at least about 20%, preferably by at least about 50%, and most preferably by at least 80% as compared to matched control. The concentration of antagonist required to provide a 50% decrease is the IC50 for the antagonist, and is preferably below 1 micromolar, 100 nanomolar, 10 nanomolar or 1 nanomolar. […]

T1 sequence (Q8NER1 whole entry): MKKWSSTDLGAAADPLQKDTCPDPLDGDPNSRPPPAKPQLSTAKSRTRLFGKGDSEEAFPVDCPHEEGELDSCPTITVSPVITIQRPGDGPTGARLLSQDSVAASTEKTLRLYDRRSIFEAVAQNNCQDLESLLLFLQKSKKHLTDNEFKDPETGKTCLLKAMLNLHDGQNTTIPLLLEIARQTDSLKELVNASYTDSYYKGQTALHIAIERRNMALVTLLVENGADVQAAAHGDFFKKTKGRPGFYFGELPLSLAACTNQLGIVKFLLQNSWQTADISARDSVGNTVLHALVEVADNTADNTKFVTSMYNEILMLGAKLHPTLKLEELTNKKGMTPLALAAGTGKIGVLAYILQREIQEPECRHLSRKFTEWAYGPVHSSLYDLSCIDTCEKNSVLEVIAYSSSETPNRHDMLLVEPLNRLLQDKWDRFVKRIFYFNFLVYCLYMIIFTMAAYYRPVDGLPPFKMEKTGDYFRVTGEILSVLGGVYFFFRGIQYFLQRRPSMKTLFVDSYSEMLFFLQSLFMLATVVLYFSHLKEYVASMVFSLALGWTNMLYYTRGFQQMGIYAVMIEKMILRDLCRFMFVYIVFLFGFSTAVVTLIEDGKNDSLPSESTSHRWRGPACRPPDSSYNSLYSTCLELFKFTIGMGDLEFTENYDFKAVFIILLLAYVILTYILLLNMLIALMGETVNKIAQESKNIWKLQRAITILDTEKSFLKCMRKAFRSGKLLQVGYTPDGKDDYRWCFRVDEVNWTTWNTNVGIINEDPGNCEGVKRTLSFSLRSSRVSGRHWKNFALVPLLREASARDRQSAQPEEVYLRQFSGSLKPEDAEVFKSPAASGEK

Structure (SMILES): Cc1ccc(Nc2cc(C3CCC3)nc3nc(-c4ncccc4C(F)(F)F)ccc23)nc1 [Compound 99, 2-cyclobutyl-N-(5-methylpyridin-2-yl)-7-[3-(trifluoromethyl)pyridin-2-yl]-1,8-naphthyridin-4-amine]
- IC50: ≤ 1000 nM

Structure (SMILES): CCOc1cc(Nc2ccc(C(F)(F)F)cn2)c2ccc(-c3ncccc3C(F)(F)F)nc2n1 [Compound 45, 2-ethoxy-7-[3-(trifluoromethyl)pyridin-2-yl]-N-[5-(trifluoromethyl)pyridin-2-yl]-1,8-naphthyridin-4-amine]
- IC50: ≤ 1000 nM

Structure (SMILES): CC1CCCN1Cc1cc(Nc2ccc(C(F)(F)F)cc2)c2ccc(-c3ncccc3C(F)(F)F)nc2n1 (stereo not shown) [Compound 49, 2-[(2-methylpyrrolidin-1-yl)methyl]-N-[4-(trifluoromethyl)phenyl]-7-[3-(trifluoromethyl)pyridin-2-yl]-1,8-naphthyridin-4-amine]
- IC50: ≤ 1000 nM

Structure (SMILES): CC(=O)c1ccc(Nc2cc(C(C)C)nc3nc(-c4ncccc4C(F)(F)F)ccc23)nc1 [Compound 116, 1-[6-({2-isopropyl-7-[3-(trifluoromethyl)pyridin-2-yl]-1,8-naphthyridin-4-yl}amino)pyridin-3-yl]ethanone]
- IC50: ≤ 1000 nM

Structure (SMILES): CC(C)(C)c1ccc(Nc2cc(N3CCCCC3)nc3cc(-c4ncccc4C(F)(F)F)ccc23)cc1 [Compound 26, N-(4-tert-butylphenyl)-2-piperidin-1-yl-7-[3-(trifluoromethyl)pyridin-2-yl]quinolin-4-amine]
- IC50: ≤ 1000 nM

Structure (SMILES): CCOc1cc(Nc2ccc(C(C)C)cc2)c2ccc(-c3ncccc3C(F)(F)F)nc2n1 [Compound 38, 2-ethoxy-N-(4-isopropylphenyl)-7-[3-(trifluoromethyl)pyridin-2-yl]-1,8-naphthyridin-4-amine]
- IC50: ≤ 1000 nM

Structure (SMILES): CC(=O)c1ccc(Nc2cc(COCC(C)C)nc3nc(-c4ncccc4Cl)ccc23)cc1 [Compound 63, 1-(4-{[7-(3-chloropyridin-2-yl)-2-(isobutoxymethyl)-1,8-naphthyridin-4-yl]amino}phenyl)ethanone]
- IC50: ≤ 1000 nM

Structure (SMILES): COCc1cc(Nc2ccc(C(F)(F)F)cc2)c2ccc(-c3ncccc3Cl)nc2n1 [Compound 51, 7-(3-chloropyridin-2-yl)-2-(methoxymethyl)-N-[4-(trifluoromethyl)phenyl]-1,8-naphthyridin-4-amine]
- IC50: ≤ 1000 nM

Structure (SMILES): COCc1cc(Nc2ccc(Cl)cc2)c2ccc(-c3ncccc3C(F)(F)F)nc2n1 [Compound 8, N-(4-chlorophenyl)-2-(methoxymethyl)-7-[3-(trifluoromethyl)pyridin-2-yl]-1,8-naphthyridin-4-amine]
- IC50: ≤ 1000 nM

Structure (SMILES): FC(F)(F)c1ccc(Nc2ccnc3nc(-c4ncccc4Cl)ccc23)nc1 [Compound 136, 7-(3-chloropyridin-2-yl)-N-[5-(trifluoromethyl)pyridin-2-yl]-1,8-naphthyridin-4-amine]
- IC50: ≤ 1000 nM

Structure (SMILES): CCN(CCCO)Cc1cc(Nc2ccc(C(F)(F)F)cc2)c2ccc(-c3ncccc3C(F)(F)F)nc2n1 [Compound 77, 3-[ethyl({4-{[4-(trifluoromethyl)phenyl]amino}-7-[3-(trifluoromethyl)pyridin-2-yl]-1,8-naphthyridin-2-yl}methyl)amino]propan-1-ol]
- IC50: ≤ 1000 nM

Structure (SMILES): Cc1cccnc1-c1ccc2c(Nc3ncc(C(F)(F)F)cn3)ccnc2n1 [Compound 137, 7-(3-methylpyridin-2-yl)-N-[5-(trifluoromethyl)pyrimidin-2-yl]-1,8-naphthyridin-4-amine]
- IC50: ≤ 1000 nM

Structure (SMILES): CCCS(=O)(=O)c1ccc(Nc2cc(COCC(C)C)nc3nc(-c4ncccc4C(F)(F)F)ccc23)cc1 [Compound 73, 2-(isobutoxymethyl)-N-[4-(propylsulfonyl)phenyl]-7-[3-(trifluoromethyl)pyridin-2-yl]-1,8-naphthyridin-4-amine]
- IC50: ≤ 1000 nM

Structure (SMILES): CC(C)CCOCc1cc(Nc2ccc(C(F)(F)F)cc2)c2ccc(-c3ncccc3C(F)(F)F)nc2n1 [Compound 42, 2-[(isopentyloxy)methyl]-N-[4-(trifluoromethyl)phenyl]-7-[3-(trifluoromethyl)pyridin-2-yl]-1,8-naphthyridin-4-amine]
- IC50: ≤ 1000 nM

Structure (SMILES): CC(C)CN(C)Cc1cc(Nc2ccc(C(F)(F)F)cc2)c2ccc(-c3ncccc3C(F)(F)F)nc2n1 [Compound 60, 2-{[isobutyl(methyl)amino]methyl}-N-[4-(trifluoromethyl)phenyl]-7-[3-(trifluoromethyl)pyridin-2-yl]-1,8-naphthyridin-4-amine]
- IC50: ≤ 1000 nM

Structure (SMILES): CN(C)CCOCc1cc(Nc2ccc(C(F)(F)F)cc2)c2ccc(-c3ncccc3C(F)(F)F)nc2n1 [Compound 25, 2-{[2-(dimethylamino)ethoxy]methyl}-N-[4-(trifluoromethyl)phenyl]-7-[3-(trifluoromethyl)pyridin-2-yl]-1,8-naphthyridin-4-amine]
- IC50: ≤ 1000 nM

Structure (SMILES): CN(Cc1cc(Nc2ccc(C(F)(F)F)cc2)c2ccc(-c3ncccc3C(F)(F)F)nc2n1)S(C)(=O)=O [Compound 70, N-methyl-N-({4-{[4-(trifluoromethyl)phenyl]amino}-7-[3-(trifluoromethyl)pyridin-2-yl]-1,8-naphthyridin-2-yl}methyl)methanesulfonamide]
- IC50: ≤ 1000 nM

Structure (SMILES): CC(C)(C)c1ccc(Nc2cc(N3CCOCC3)nc3cc(-c4ncccc4C(F)(F)F)ccc23)cc1 [Compound 23, N-(4-tert-butylphenyl)-2-morpholin-4-yl-7-[3-(trifluoromethyl)pyridin-2-yl]quinolin-4-amine]
- IC50: ≤ 1000 nM

Structure (SMILES): COCc1cc(Nc2ccc(C(C)(C)O)cc2)c2ccc(-c3ncccc3Cl)nc2n1 [Compound 53, 2-(4-{[7-(3-chloropyridin-2-yl)-2-(methoxymethyl)-1,8-naphthyridin-4-yl]amino}phenyl)propan-2-ol]
- IC50: ≤ 1000 nM

Structure (SMILES): COCc1cc(Nc2ccc3c(c2)CN(C)CC3(C)C)c2ccc(-c3ncccc3C(F)(F)F)nc2n1 [Compound 17, 2-(methoxymethyl)-7-[3-(trifluoromethyl)pyridin-2-yl]-N-(2,4,4-trimethyl-1,2,3,4-tetrahydroisoquinolin-7-yl)-1,8-naphthyridin-4-amine]
- IC50: ≤ 1000 nM

Structure (SMILES): CN(CC(=O)O)Cc1cc(Nc2ccc(C(F)(F)F)cc2)c2ccc(-c3ncccc3C(F)(F)F)nc2n1 [Compound 76, N-methyl-N-({4-{[4-(trifluoromethyl)phenyl]amino}-7-[3-(trifluoromethyl)pyridin-2-yl]-1,8-naphthyridin-2-yl}methyl)glycine]
- IC50: ≤ 1000 nM

Structure (SMILES): CCCOc1cc(Nc2ccc(C(C)(C)C)cc2)c2ccc(-c3ncccc3C(F)(F)F)cc2n1 [Compound 33, N-(4-tert-butylphenyl)-2-propoxy-7-[3-(trifluoromethyl)pyridin-2-yl]quinolin-4-amine]
- IC50: ≤ 1000 nM

Structure (SMILES): CCS(=O)(=O)N(C)Cc1cc(Nc2ccc(C(F)(F)F)cc2)c2ccc(-c3ncccc3C(F)(F)F)nc2n1 [Compound 71, N-methyl-N-({4-{[4-(trifluoromethyl)phenyl]amino}-7-[3-(trifluoromethyl)pyridin-2-yl]-1,8-naphthyridin-2-yl}methyl)ethanesulfonamide]
- IC50: ≤ 1000 nM

Structure (SMILES): CC(C)(C)c1ccc(Nc2cc(Cl)nc3cc(-c4ncccc4C(F)(F)F)ccc23)cc1 [Compound 22, N-(4-tert-butylphenyl)-2-chloro-7-[3-(trifluoromethyl)pyridin-2-yl]quinolin-4-amine]
- IC50: ≤ 1000 nM

Structure (SMILES): FC(F)(F)c1cccnc1-c1ccc2c(Nc3ccc(Cl)cn3)cc(C3CCC3)nc2n1 [Compound 101, N-(5-chloropyridin-2-yl)-2-cyclobutyl-7-[3-(trifluoromethyl)pyridin-2-yl]-1,8-naphthyridin-4-amine]
- IC50: ≤ 1000 nM
